Measurements taken from US11066399B2, “Ferroportin inhibitors” (Vifor (International) AG, priority 2015, dated 2021).
Marks after values point to notes of the source that are not given here.

Columns and labels:
ferroportin (Fpn) [1] = target: T1, ferroportin (Fpn) (Mus musculus, UniProt Q9JHI9); experiment: Hepcidin Internalization Assay (J774); format: cell-based; conditions: average (AVE) of multiple measurements; TMR-hepcidin 25 nM, J774 cells
T1 construct: host or cells: J774 mouse macrophage cell line, Fe(III)-NTA induced
T1 sequence (Q9JHI9 1-570): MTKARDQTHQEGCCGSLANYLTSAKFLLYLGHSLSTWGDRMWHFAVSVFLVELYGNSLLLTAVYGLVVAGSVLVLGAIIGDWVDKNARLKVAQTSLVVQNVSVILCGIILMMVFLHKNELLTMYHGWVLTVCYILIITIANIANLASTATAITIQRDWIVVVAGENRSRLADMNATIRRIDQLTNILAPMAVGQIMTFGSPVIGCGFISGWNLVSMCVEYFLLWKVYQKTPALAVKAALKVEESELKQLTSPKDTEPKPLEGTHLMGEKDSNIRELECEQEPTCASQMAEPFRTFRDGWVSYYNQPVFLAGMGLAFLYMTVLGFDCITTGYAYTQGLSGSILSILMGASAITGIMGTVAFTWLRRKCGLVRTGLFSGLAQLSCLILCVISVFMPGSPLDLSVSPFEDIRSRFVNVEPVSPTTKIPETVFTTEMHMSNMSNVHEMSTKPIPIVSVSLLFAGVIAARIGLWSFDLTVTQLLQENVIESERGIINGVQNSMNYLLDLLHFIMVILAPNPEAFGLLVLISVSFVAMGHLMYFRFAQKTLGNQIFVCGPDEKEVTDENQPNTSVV
Excerpt: This cellular assay allows quantification of the binding of hepcidin to ferroportin (Fpn) through microscopic detection of internalization of a fluorescently labeled hepcidin into J774 cells. […] Binding of hepcidin to Fpn triggers internalization and degradation of both hepcidin and Fpn. However, the TMR (6-carboxytetramethylrhodamine) fluorophore attached to hepcidin remains associated with the cell after degradation of the hepcidin peptide backbone. Therefore, microscopic detection of cell-associated TMR fluorescence is a measure of hepcidin binding to Fpn and internalization of hepcidin and Fpn. If TMR-hepcidin is prevented from binding to Fpn, cellular TMR fluorescence remains low (Dürrenberger et al, 2013). The effect of small molecular weight Fpn inhibitor compounds in this assay was evaluated in vitro as described below.
After overnight incubation, cells were washed 3 times with pre-warmed DMEM w/o phenol red, 30 μl/well of DMEM w/o phenol red was added after the final wash and 10 μl/well of dilution series of test compounds were added in triplicates. […] Cells were incubated in a total volume of 50 μl at 37° C. with 5% CO2 for 2 hours, then Hoechst 33342 dye was added to a final concentration of 0.5 μg/ml to stain nuclei and further incubated for 10 min. at 37° C. with 5% CO2. Cells were washed 3 times with PBS and fixed in 100 μl of 4% paraformaldehyde in PBS for 15 min. at room temperature. After removal of the paraformaldehyde solution, cells were washed 3 times with PBS leaving 100 μl per well and the plates were sealed with foil plate seal. TMR (530-550 nm excitation/575-625 nm emission/400 ms exposure time) and Hoechst 33342 (360-370 nm excitation/420-460 nm emission/10 ms exposure time) fluorescence images were acquired using a ScanR plate imager (Olympus) with a 20× high NA objective. Four pictures were acquired per well and fluorescence channel covering ca. 1500 cells per well. The acquired image data was analysed with the ScanR image analysis software. Image analysis included detection of nuclei (Hoechst 33342 fluorescence), identification of cell-associated regions, application of a virtual channel and thresholding for rolling-ball-type background reduction, followed by application of the Sum(Mean) algorithm to measure the TMR fluorescence associated with cells as a quantitative measure for internalized TMR-hepcidin. IC50 values were calculated with the Sum(Mean) raw data using “log(inhibitor) vs. response” curve fitting of Prism 5 software (GraphPad Software Inc., version 5.02).

human Fpn = target: T2, human Fpn (Homo sapiens, UniProt Q9NP59); experiment: Biophysical Ferroportin-Hepcidin Binding Assay (fluorescence polarization); conditions: average (AVE) of multiple measurements; TMR-hepcidin binding to purified human Fpn; read-out: FP IC50
T2 construct: FLAG (C); made in house; host or cells: Pichia pastoris
T2 sequence (Q9NP59 1-571): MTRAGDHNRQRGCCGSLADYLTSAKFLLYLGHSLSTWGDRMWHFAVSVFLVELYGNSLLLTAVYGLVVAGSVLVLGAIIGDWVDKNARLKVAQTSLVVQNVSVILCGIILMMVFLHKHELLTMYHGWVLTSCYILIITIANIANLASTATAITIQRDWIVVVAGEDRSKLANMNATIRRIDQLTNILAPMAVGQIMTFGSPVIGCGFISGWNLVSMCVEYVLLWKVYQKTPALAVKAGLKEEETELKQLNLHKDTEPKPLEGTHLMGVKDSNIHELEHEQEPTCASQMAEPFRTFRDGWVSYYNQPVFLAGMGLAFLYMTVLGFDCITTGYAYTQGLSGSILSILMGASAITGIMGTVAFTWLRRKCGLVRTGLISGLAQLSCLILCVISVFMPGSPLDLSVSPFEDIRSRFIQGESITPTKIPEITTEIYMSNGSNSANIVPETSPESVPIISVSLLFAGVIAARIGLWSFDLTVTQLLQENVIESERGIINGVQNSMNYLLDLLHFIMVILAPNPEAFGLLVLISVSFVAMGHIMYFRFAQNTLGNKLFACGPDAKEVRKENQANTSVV
Procedure: This biophysical assay was developed to confirm inhibition of hepcidin binding to ferroportin (Fpn) more directly. Incubation of TMR-hepcidin with purified human Fpn isolated from Pichia pastoris yeast cells expressing human Fpn with a C-terminal FLAG affinity tag (Bonaccorsi di Patti, 2014) leads to increased fluorescence polarization (FP) of the TMR-hepcidin ligand. Small molecular weight Fpn inhibitors were tested for inhibition of binding of TMR-hepcidin to Fpn, as detected by dose-dependent decrease of the TMR FP signal, as described in detail below.
A mixture of […] human Fpn and 30 nM TMR-hepcidin in FP assay buffer containing 50 mM Tris-HCl pH 7.3, 200 mM NaCl, 0.02% DDM, 0.1% BSA was plated into a 384 well black low volume round bottom plate (Corning, Cat. 3677) at 16 μl per well. 8 μl of serial dilutions of test compounds were added in duplicates to reach final Fpn and TMR-hepcidin concentrations of […] and 20 nM, respectively. Plates were incubated for 90 minutes at room temperature and parallel (S) and perpendicular (P) fluorescence was measured in a Synergy H1 fluorescence reader (BioTek). FP values were calculated in mP according to the following formula.

anemic Wistar rats = experiment: Prevention of iron absorption in anemic rats; format: in vivo, rat; conditions: 1 h before 0.5 mg/kg ferrous sulfate
Procedure: To assess the in vivo efficacy of ferroportin (Fpn) inhibitors to block iron absorption, a series of Fpn inhibitors were tested in an anemic rat model for iron absorption. Wistar rats (3-4 weeks old, n=5, Janvier Labs) were fed a low iron diet (Provimi-Kliba, Cat. 2039) until their hemoglobin (Hb) values reach 7-8 g/dl one day before dosing of the Fpn inhibitor compounds. One hour before oral application of 0.5 mg/kg of ferrous sulfate, test compounds formulated in methyl cellulose or Cremophor were dosed orally. Blood samples were taken by tail vein puncture one hour before administration of iron (−1 h), immediately after dosing of the Fpn inhibitors (0 h) and one hour (1 h), three hours (3 h) and occasionally up to 6 hours (6 h) after dosing of the test compounds. Serum iron levels were measured (Abbott Diagnostics, Cat. 6K95) and inhibition of the rise of serum iron three hours after dosing of the test compound was calculated as a measure for efficacy of the Fpn inhibitors in blocking iron absorption (Table 7).

ferroportin (Fpn) [2] = target: T1, ferroportin (Fpn); experiment: Ferroportin Ubiquitination and Degradation (immunoprecipitation, Western blot, J774 cells); format: cell-based; parameters: key: +: comparable to hepcidin; −: no effect; +/−: intermediate effect; conditions: ca. 10-fold IC50 concentration, visual inspection of Western blots
Procedure: Exposure of cells expressing ferroportin (Fpn) to hepcidin is known to trigger ubiquitination and subsequent internalization and degradation of Fpn (Qiao, 2012). The potential of Fpn inhibitors to induce Fpn ubiquitination and degradation was investigated with an immunoprecipitation assay using the J774 mouse macrophage cell line which expresses Fpn upon treatment with iron.
Cells were incubated with synthetic human hepcidin (Bachem, Cat. H-5926) or Fpn inhibitor compounds for 10 min or 120 min. Cells were washed and lysed with ice-cold lysis buffer (Pierce, Life Technologies, Cat. 87787) including 1×HALT protease inhibitor cocktail (Life technologies, Cat. 78429) and 10 mM iodoacetamide (Sigma, Cat. 16125) to stabilize ubiquitinated proteins. Immunoprecipitation was done using the Pierce Classic IP Kit (Life Technologies, Cat. 26146) following the manufacturer's protocol. Briefly, 2 mg protein in 1.25 ml IP lysis buffer was incubated by mixing for 1 h at 4° C. with control agarose beads to pre-clear the lysate and reduce nonspecific signal. Unbound lysate was then incubated overnight with 12 μg per reaction of the affinity purified anti-Fpn antibody F308 that was raised against a GST fusion protein of mouse Fpn amino acids 224-308. Immune complexes were captured by pipetting 14 μl settled Pierce Protein A/G Plus Agarose beads (Life Technologies, Cat. 20423) per reaction and the slurry was incubated for 1.5 h at 4° C. with gentle end-over-end mixing. The beads were washed and immune complexes were eluted directly with 75 μl SDS NuPAGE LDS sample buffer (Life Technologies, Cat. NP0007) containing DTT (Life Technologies, Cat. NP0009). After immunoprecipitation samples were analyzed by Western blotting using a rabbit anti-mouse MTP1 antiserum (Alpha Diagnostic International, Cat. MTP11-A) and a mouse anti-mono- and polyubiquitinylated conjugates monoclonal antibody (Enzo Lifesciences, Cat. BML-PW8810) for detection of ferroportin and ubiquitin, respectively. Mouse monoclonal anti-rabbit IgG light chain (Abcam, Cat. ab99697) and anti-mouse IgG H&L (Abcam, Cat. ab6789) HRP conjugates were used as secondary antibodies.
A selection of eleven Fpn inhibitors were tested in this assay and compared to hepcidin.
Table 5 Summary of Fpn inhibitors tested in the Fpn ubiquitination and degradation assay.

naïve WT C57BL/6 mice = experiment: Hypoferremia in naïve mice; format: in vivo, mouse; conditions: injection of synthetic hepcidin in WT naïve mice, from the vehicle control, maximal effect at 3-4 hours
Procedure: Female C57BL/6 mice (Janvier, France) at age of 9 weeks were fed a standard diet (Harlan Provimi Kliba 3436) and treated per os (p.o.) with compounds or the corresponding amount of vehicle at a volume of 10 ml/kg body weight. Fpn inhibitors were formulated in 0.5% methylcellulose/water or 20% cremophor EL/water and dosed p.o. in mice at 10, 30 or 100 mg/kg body weight. Three hours later, mice were pre-terminally anesthetized in isoflurane chambers and blood was collected by retro-orbital bleeding. Mice were sacrificed by cervical dislocation and spleens, livers and duodena were harvested and used for biomarker analysis. All experiments have been conducted in compliance with the license approved by the responsible veterinarian authorities. Serum was isolated by centrifugation of blood into gel-containing microtainers and serum iron was determined by the MULTIGENT Iron assay (Abbott Diagnostics, 6K95). Eight mice per group were used and one-way ANOVA with Bonferroni's multiple comparison test was performed to analyze the statistical differences between the experimental groups.
Relative serum iron reduction at 3 h after dosing was calculated by subtracting the average of serum iron values of animals dosed with the Fpn inhibitor from that of vehicle-treated animals. The difference in average serum iron values between vehicle and compound treated groups was then divided by the average of serum iron of the vehicle control group and listed as percentage.

O=C(NCc1ccccn1)c1csc2c1CCN(CCc1nc3ccccc3[nH]1)C2 [Example 49]
IC50 (ferroportin (Fpn) [1]): 30.6 µM
IC50 (human Fpn): 24 µM

Cc1cccnc1CNC(=O)c1csc(CCNCc2nc3ccccc3[nH]2)n1 [Example 55]
IC50 (ferroportin (Fpn) [1]): 0.015 µM
Serum Iron Inhibition (%) at 3 h (anemic Wistar rats; Dose 3 mg/kg oral): 54*** %
Serum Iron Inhibition (%) at 3 h (anemic Wistar rats; Dose 10 mg/kg oral): 72*** %

O=C(NCc1ncccc1F)c1coc(CCNCc2nc3ccccc3[nH]2)n1 [Example 126]
Fpn Degradation (120 min.) (ferroportin (Fpn) [2]): +
Fpn Ubiquitination (10 min.) (ferroportin (Fpn) [2]): +/−

O=C(NCc1ccccc1F)c1coc(C2CN(CCCc3nc4ccccc4[nH]3)C2)n1 [Example 233]
IC50 (ferroportin (Fpn) [1]): 16 µM
IC50 (human Fpn): 6.78 µM

CC[C@H](C)[C@@H]1NC(=O)[C@@H](NC(=O)[C@@H](NC(=O)[C@@H]2CCCN2C(=O)[C@H](Cc2ccccc2)NC(=O)[C@H](Cc2c[nH]cn2)NC(=O)[C@@H](NC(=O)[C@@H](N)CC(=O)O)[C@@H](C)O)[C@@H](C)CC)CSSC[C@@H](C(=O)N[C@@H](CCCCN)C(=O)N[C@H](C(=O)O)[C@@H](C)O)NC(=O)[C@@H]2CSSC[C@@H]3NC(=O)[C@@H]4CSSC[C@H](NC(=O)[C@H](Cc5ccccc5)NC1=O)C(=O)N[C@@H](CSSC[C@H](NC(=O)[C@H](CCCCN)NC(=O)[C@H](CO)NC(=O)[C@H](CCCNC(=N)N)NC(=O)[C@H](Cc1c[nH]cn1)NC3=O)C(=O)NCC(=O)N[C@@H](CCSC)C(=O)N2)C(=O)NCC(=O)N4 [hepcidin, reference compound]
Fpn Degradation (120 min.) (ferroportin (Fpn) [2]): +
Fpn Ubiquitination (10 min.) (ferroportin (Fpn) [2]): +
reduction of serum iron levels (naïve WT C57BL/6 mice): 40-50%
